{"source": "patent US20050020556A1", "about": "“Method for treating diseases using HSP90-inhibiting agents in combination with platinum coordination complexes” (Kosan Biosciences, Inc., priority 2003, published 2005)", "key": {"ErbB2 protein [1]": {"test_system": "ErbB2 protein", "assay": "ErbB2 protein expression in SKBr3 cells", "assay_type": "cell-based, human"}, "[2]": {"conditions": "background statement; cited from earlier work"}, "[3]": {"conditions": "clinical trials, cited from earlier work"}, "ErbB2 protein [4]": {"test_system": "ErbB2 protein", "assay": "ErbB2 protein expression in glioma cells", "assay_type": "cell-based"}, "[5]": {"test_system": "SKBr cells (human breast cancer cells)", "assay": "Cell viability (MTS) drug combination assay, combination index, SKBr-3 cells", "assay_type": "cell-based", "conditions": "combination with 17-AAG, CI<1 synergism", "method": "Human colon adenocarcinoma cell line, DLD-1, and human breast adenocarcinoma cell line, SKBr-3, were obtained from American Type Culture Collection (manassas, VA). […] Other cytotoxic agents were purchased commercially from suppliers such as Sigma Chemical Co. (St. Louis, Mo.) and Sequoia Research Products (Oxford, UK). Cells were seeded in duplicate in 96-well microtiter plates at a density of 5,000 cells per well and allowed to attach overnight. […] Cell viability was determined using the MTS assay (Promega). […] Based on the IC50 values of each individual drug, combined drug treatment was designed at constant ratios of two drugs, i.e., equivalent to the ratio of their IC50. […] The drug was then added to the cells and incubated for 48 hours. […] Cell viability was determined by the MTS assay. Synergism, additivity or antagonism was determined by median effect analysis using the combination index (CI) calculated using Calcusyn (Biosoft, Cambridge, UK). […] The quantities [Dx]1 and [Dx]2 represent the concentrations of the first and second drug, respectively, that when used alone provide a response of x % in the assay. […] The “enhancing” effect of two drugs can also be determined."}, "[6]": {"test_system": "DLD-1 cells (human colorectal cancer cells)", "assay": "Cell viability (MTS) drug combination assay, combination index, DLD-1 cells", "assay_type": "cell-based", "conditions": "combination with 17-AAG, CI<1 synergism", "method": "Human colon adenocarcinoma cell line, DLD-1, and human breast adenocarcinoma cell line, SKBr-3, were obtained from American Type Culture Collection (manassas, VA). […] Other cytotoxic agents were purchased commercially from suppliers such as Sigma Chemical Co. (St. Louis, Mo.) and Sequoia Research Products (Oxford, UK). Cells were seeded in duplicate in 96-well microtiter plates at a density of 5,000 cells per well and allowed to attach overnight. […] Cell viability was determined using the MTS assay (Promega). […] Based on the IC50 values of each individual drug, combined drug treatment was designed at constant ratios of two drugs, i.e., equivalent to the ratio of their IC50. Two treatment schedules were used: In one schedule, the cells were exposed to 24 hours of 17-AAG or 17-DMAG. The drug was then added to the cells and incubated for 48 hours. […] Cell viability was determined by the MTS assay. Synergism, additivity or antagonism was determined by median effect analysis using the combination index (CI) calculated using Calcusyn (Biosoft, Cambridge, UK). […] The quantities [Dx]1 and [Dx]2 represent the concentrations of the first and second drug, respectively, that when used alone provide a response of x % in the assay. […] The “enhancing” effect of two drugs can also be determined."}, "[7]": {"conditions": "17-AAG Post-Administration (platinum complex 24 h, then 17-AAG 48 h)"}}, "note": "Read-outs that look alike come from different tables or passages of the source."}
{"molecule": "17-(allylamino)-17-desmethoxygeldanamycin [17-AAG]", "values": [{"measurement": "expression of ErbB2 protein", "setting": "ErbB2 protein [1]", "value": "reduced the expression of ErbB2 protein"}, {"measurement": "hepatotoxicity", "setting": "[2]", "value": "reduced hepatotoxicity"}, {"measurement": "MTD", "setting": "[3]; daily x 5 schedule", "value": "about 40 mg/m^2"}, {"measurement": "MTD", "setting": "[3]; once-weekly regimen", "value": "about 308 mg/m^2"}, {"measurement": "MTD", "setting": "[3]; twice-weekly regimen", "value": "about 220 mg/m^2"}, {"measurement": "expression of ErbB2 protein", "setting": "ErbB2 protein [4]", "value": "reduced the expression of ErbB2 protein"}]}
{"molecule": "CO[C@H]1/C=C\\C=C(/C)C(=O)NC2=CC(=O)C(NCCN(C)C)=C(C[C@@H](C)C[C@H](OC)[C@H](O)[C@@H](C)/C=C(\\C)[C@@H]1OC(N)=O)C2=O", "note": "[17-DMAG, 17-(2-dimethylaminoethyl)amino-17-desmethoxygeldanamycin]", "values": [{"measurement": "expression of ErbB2 protein", "setting": "ErbB2 protein [1]", "value": "reduced the expression of ErbB2 protein"}, {"measurement": "expression of ErbB2 protein", "setting": "ErbB2 protein [4]", "value": "reduced the expression of ErbB2 protein"}]}
{"molecule": "N.N.[Cl][Pt][Cl]", "note": "[Cisplatin, cisplatin]", "values": [{"measurement": "CI value (combination index)", "setting": "[5]; [7]", "value": "Enhancement"}, {"measurement": "CI value (combination index)", "setting": "[5]; 17-AAG Pre-Administration (17-AAG 24 h, then platinum complex 48 h)", "value": "No Effect"}, {"measurement": "CI value (combination index)", "setting": "[6]; [7]", "value": "No Effect"}, {"measurement": "CI value (combination index)", "setting": "[6]; 17-AAG Pre-Administration (17-AAG 24 h, then platinum complex 48 h), CI=1 additivity, CI>1 antagonism", "value": "No Effect"}]}
{"molecule": "COC1=C2C[C@@H](C)C[C@H](OC)[C@H](O)[C@@H](C)/C=C(\\C)[C@H](OC(N)=O)[C@@H](OC)/C=C\\C=C(/C)C(=O)NC(=CC1=O)C2=O", "note": "[geldanamycin, Geldanamycin]", "values": [{"measurement": "hepatotoxicity", "setting": "[2]", "value": "unacceptable hepatotoxicity"}]}
